Source: PMC6383769 (Nature, 2019)

Experiments:
human D4 (D4.4 variant) [1] = target: T1, human D4 (D4.4 variant) (Homo sapiens, UniProt P21917); assay: biochemical; format: binding
T1 sequence (P21917 1-419): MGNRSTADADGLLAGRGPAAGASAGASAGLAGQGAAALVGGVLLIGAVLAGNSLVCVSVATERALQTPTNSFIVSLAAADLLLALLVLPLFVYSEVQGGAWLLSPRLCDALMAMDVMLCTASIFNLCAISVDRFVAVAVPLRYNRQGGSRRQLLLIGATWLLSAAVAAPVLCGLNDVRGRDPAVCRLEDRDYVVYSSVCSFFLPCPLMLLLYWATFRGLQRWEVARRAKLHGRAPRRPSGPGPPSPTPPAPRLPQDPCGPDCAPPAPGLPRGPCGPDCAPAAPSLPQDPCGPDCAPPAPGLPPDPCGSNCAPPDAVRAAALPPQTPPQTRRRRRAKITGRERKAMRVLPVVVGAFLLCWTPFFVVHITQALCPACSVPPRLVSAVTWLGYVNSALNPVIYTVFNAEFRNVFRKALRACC

[2] = target: human D2 (D2 long receptor) (Homo sapiens, UniProt P14416); assay: biochemical; format: binding
human D2 (D2 long receptor), sequence (P14416 whole entry): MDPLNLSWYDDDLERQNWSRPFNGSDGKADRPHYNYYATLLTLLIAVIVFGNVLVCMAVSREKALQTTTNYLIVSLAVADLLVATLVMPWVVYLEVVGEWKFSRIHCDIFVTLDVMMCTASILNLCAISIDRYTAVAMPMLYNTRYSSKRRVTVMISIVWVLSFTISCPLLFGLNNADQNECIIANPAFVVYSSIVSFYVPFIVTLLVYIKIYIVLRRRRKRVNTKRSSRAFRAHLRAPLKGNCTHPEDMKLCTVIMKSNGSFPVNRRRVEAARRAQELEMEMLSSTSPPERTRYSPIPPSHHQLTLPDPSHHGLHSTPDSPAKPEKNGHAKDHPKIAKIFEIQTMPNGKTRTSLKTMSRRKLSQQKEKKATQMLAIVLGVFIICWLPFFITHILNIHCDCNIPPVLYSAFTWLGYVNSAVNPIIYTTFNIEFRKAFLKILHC

human D3 = human D3 (Homo sapiens, UniProt P35462); assay: D3 radioligand binding assay
human D3, sequence (P35462 whole entry): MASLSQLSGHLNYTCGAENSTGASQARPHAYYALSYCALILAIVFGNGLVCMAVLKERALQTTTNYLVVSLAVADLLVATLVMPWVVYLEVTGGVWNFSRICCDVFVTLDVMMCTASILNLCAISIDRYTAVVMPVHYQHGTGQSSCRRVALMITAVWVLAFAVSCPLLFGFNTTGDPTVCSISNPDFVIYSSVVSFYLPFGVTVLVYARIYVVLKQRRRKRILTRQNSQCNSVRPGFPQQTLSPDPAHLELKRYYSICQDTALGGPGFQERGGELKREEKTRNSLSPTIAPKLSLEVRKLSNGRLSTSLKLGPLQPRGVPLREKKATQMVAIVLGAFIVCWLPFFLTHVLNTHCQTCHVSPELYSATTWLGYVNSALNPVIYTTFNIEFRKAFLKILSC

human D4 (D4.4 variant) [3] = target: T1, human D4 (D4.4 variant); assay: cell-based
cloned human D4 = target: T2, cloned human D4 (Homo sapiens, UniProt P21917); assay: cell-based; conditions: Tango EC50, D4 β-arrestin
T2 sequence (P21917 1-419): T1 sequence (P21917 1-419)

human D4 [4] = target: T3, human D4 (Homo sapiens, UniProt P21917); assay: cell-based
T3 sequence (P21917 1-419): T1 sequence (P21917 1-419)

human D4 [5] = target: T3, human D4; assay: Arrestin BRET; format: cell-based
D4 dopamine receptor = assay: Signaling bias, G protein versus β-arrestin, versus quinpirole; format: cell-based, human

Row | SMILES | Ki (human D4 (D4.4 variant) [1]) [µM] | Ki [2] [µM] | Ki (human D3) [µM] | EC50 (human D4 (D4.4 variant) [3]) [µM] | EC50 (cloned human D4) [µM] | EC50 (human D4 [4]) [µM] | EC50 (human D4 [5]) [µM] | β-arrestin bias (D4 dopamine receptor)
1 | C[C@@H]1CCCN(C(C)(C)CNc2nc(C3CC3)ns2)C1 [ZINC92642352] | 0.82 | > 10 | > 10 |  |  |  |  | 
2 | Cc1ccc(CNCCCn2cccn2)cc1Br [ZINC127859549] | 0.26 | > 10 | 3.57 | 10.4 |  |  |  | 
3 | O[C@]1(CNCc2cnn(-c3ccc(Br)cc3)c2)CCSC1 [ZINC176752603] | 0.3 | > 10 | > 10 |  |  |  |  | 
4 | Cc1cccc(CCNCc2ccn(-c3ccccc3)n2)c1 [ZINC237938360] | 0.18 | 5.72 | 1.07 |  |  |  |  | 
5 | CC(C)N1C[C@H](C)[C@H](NC(=O)c2cccc3cc[nH]c23)C1 [ZINC247398558] | 0.21 | > 10 | > 10 |  |  |  |  | 
6 | C[C@H]1CN(C2CC2)C[C@H]1NC(=O)c1cc2cc([N+](=O)[O-])ccc2s1 [ZINC268141382] | 0.56 | > 10 | > 10 | 9.9 |  |  |  | 
7 | C=Cn1cc(CNC[C@@H](CO)Cc2ccccc2Br)cn1 [ZINC278933042] | 0.27 | > 10 | > 10 | 0.041 | 22.3 |  |  | 
8 | OC[C@H](Cc1ccc(F)cc1)NCc1ccn(-c2ccccc2)n1 [ZINC358506216] | 0.25 | 5.88 | 6.54 |  |  |  |  | 
9 | C#CCOc1ccccc1CN1CC[C@@]2(C1)C(=O)Nc1ccccc12 [ZINC375299581] | 0.18 | > 10 | > 10 |  |  |  |  | 
10 | CCCC[C@H](CN)NC(=O)Nc1cnn(-c2ccc(C)cc2C)c1 [ZINC415558697] | 0.99 | 2 | 5.87 |  |  |  |  | 
11 | C[C@H](N[C@H](CO)Cc1ccccc1)c1cc2c(s1)CCC2 [ZINC437075156] | 0.19 | > 10 | > 10 | 10.4 |  |  |  | 
12 | CCC(CC)[C@@H](O)CNCc1cnc(-c2ccccc2F)s1 [ZINC449156693] | 0.76 | > 10 | > 10 |  |  |  |  | 
13 | C[C@H]1CN(C2CC2)C[C@H]1NC(=O)c1cc2cc(Br)ccc2o1 [ZINC467716766] | 0.7 | > 10 | > 10 | 34.8 |  |  |  | 
14 | CCC[C@H](C)[C@H](CO)NCCc1nc(-c2ccc(Cl)cc2)no1 [ZINC567992445] | 0.85 | > 10 | > 10 | 4.82 |  |  |  | 
15 | C=C(C)COCCNC[C@H](O)Cc1ccc(C(F)(F)F)cc1 [ZINC569686370] | 0.55 | > 10 | > 10 | 7.8 |  |  |  | 
16 | CC1(C)CCN(CC(=O)NC[C@@H]2CCC[C@H]2C2CC2)C1 [ZINC572302473] | 0.91 | > 10 | > 10 |  |  |  |  | 
17 | N#Cc1ccnc(SC[C@]2(O)CCN(Cc3ccccc3)C2)c1 [ZINC601953994] | 0.98 | > 10 | > 10 |  |  |  |  | 
18 | CC(C)N1C[C@H](C)[C@H](NC(=O)N2Cc3ccccc3[C@@H]2C)C1 [ZINC621433143] | 0.669 | > 10 | > 10 | 0.35 | 0.898 | 3.15 | 1.25 | 7
19 | O=C(CN1C[C@@H](O)C[C@@H]1C1CC1)Nc1ccc(Br)cc1 [ZINC640028109] | 0.81 | > 10 | > 10 |  |  |  |  | 
20 | C[C@H](CNC(=O)c1coc2ccc(Cl)cc12)N1CCCC1 [ZINC651262870] | 0.44 | > 10 | > 10 | 31 |  |  |  | 
